Test results: patent US9365572B2, “PI3K and/or mTOR inhibitor” (XUANZHU PHARMA CO., LTD., priority 2012, dated 2016)

Legend:
Assay in all cases: Kinase selectivity, Mobility shift assay
Format in all cases: biochemical
[1] = target: ABL (Homo sapiens (Human), UniProt P00519)
Method: (§1) Object: In this assay, the inhibitory activity of the test substance on the kinases listed in Table 3 was determined, and therefore the selectivity of the present compound was determined.
(§2) Except for the BRAF V600E kinase in Table 3, the Mobility shift assay was used for other kinases.
(§3) 1. Preparation of Agents:
(§4) • 1.1 1-fold kinase buffer without MnCl2: 50 mM HEPES, pH 7.5, 0.0015% Brij-35, 10 mM MgCl2, 2 mM DTT. • 1.2 1-fold kinase buffer with MnCl2: 50 mM HEPES, pH 7.5, 0.0015% Brij-35, 10 mM MgCl2, 10 mM MnCl2, 2 mM DTT. • 1.3 Termination solution: 100 mM HEPES, pH 7.5, 0.0015% Brij-35, 0.2% Coating Reagent#3, 50 mM EDTA. • 1.4 2.5-fold kinase solution: The kinase was added to the 1-fold kinase buffer to form a 2.5-fold kinase solution. • 1.5 2.5-fold substrate solution: FAM fluorescence-labelled polypeptide and ATP were added to the 1-fold kinase buffer to form a 2.5-fold substrate solution. 2. Preparation of 5-fold compound
(§5) The final test concentration of the compound was 10 μM at maximum. Firstly, a 50-fold concentration (i.e. 500 μM) was prepared with 100% DMSO. The compound was diluted with 100% DMSO by 5 folds at 5 concentrations (successively 500 μM, 100 μM, 20 μM, 4 μM, and 0.8 μM). After diluting with 1-fold kinase buffer by 10 folds, 5 μl of the samples were transferred to a 384-well reaction plate. Two negative control wells and two positive control wells were set at each line respectively. Replication was made in a 96-well plate in five concentrations of 5-fold compound. 10% DMSO was added to the positive control well, and 5 μl of EDTA (250 mM) was added to the negative control well.
(§6) • 3.1 To the 384-well reaction plate was added 5-fold compound dissolved in 10% DMSO at 5 μl/well. • 3.2 To the 384-well reaction plate was added 2.5-fold kinase solution at 10 μl/well. The plate was incubated at room temperature for 10 mins. • 3.3 To the 384-well reaction plate was added 2.5-fold substrate solution at 10 μl/well. The plate was incubated at 28° C. for a certain period. • 3.4 25 μl termination solution was added to terminate the reaction. The conversion was read from Caliper. 4. Inhibition rate calculation Inhibition rate (%)=(maximum−sample value)/(maximum−minimum)×100 • wherein: • maximum refers to the conversion at the DMSO control well, • minimum refers to the conversion at the control well without kinase. Lanthascreen Analysis Method for the BRAF V600E Kinase 1. Preparation of Agents: • 1.1 2-fold kinase solution: using 1-fold kinase buffer to prepare 2-fold kinase solution, with a final concentration of 0.35 nM of BRAFV600E; • 1.2 4-fold substrate solution: using 1-fold kinase buffer to prepare 4-fold substrate solution, with a final substrate solution concentration of 0.2 μM of Fluorescein-MAP2K1 and 1.5 μM of ATP. 2. Preparation of 4-fold compound • The final test concentration of the compound was 10 μM at maximum. Firstly, a 100-fold concentration (i.e. 1000 μM) was prepared with 100% DMSO. The compound was diluted with 100% DMSO by 5 folds at 5 concentrations. The compound series was identical to that in the Mobility Shift Assay. After diluting with 1-fold kinase buffer by 25 folds, the resulting samples were shaked and mixed evenly on a plate-shaker for 10 mins. 3. Procedure • 3.1 To the 384-well reaction plate was added 4-fold compound dissolved in 10% DMSO at 2.5 µl/well; • 3.2 To the 384-well reaction plate was added 2-fold kinase solution at 5 μl/well, and to the negative control wells were added 1-fold kinase buffer. The samples were shaked, mixed evenly, and kept standing at room temperature. • 3.3 To the 384-well reaction plate was added 4-fold substrate solution at 2.5 μl/well. The plate was reacted, shaked, mixed evenly and incubated at room temperature for one hour; • 3.4 Reaction result detection: 2-fold detection solution was prepared, with a final concentration of 2 nM of Antibody and 10 mM of EDTA. 10 μl of the detection solution was transferred to the 384-well plate to terminate the reaction. […]

[2] = target: AMPKa1 (Homo sapiens (Human), UniProt Q13131)
Method: as §1, §2, §3, §4, §5, §6

[3] = target: AURA (Homo sapiens (Human), UniProt O14965)
Method: as §1, §2, §3, §4, §5, §6

[4] = target: CDK2 (Homo sapiens (Human), UniProt P24941)
Method: as §1, §2, §3, §4, §5, §6

[5] = target: CHK1 (Homo sapiens (Human), UniProt O14757)
Method: as §1, §2, §3, §4, §5, §6

[6] = target: CKIT (Homo sapiens (Human), UniProt P10721)
Method: as §1, §2, §3, §4, §5, §6

[7] = target: CMET (Homo sapiens (Human), UniProt P08581)
Method: as §1, §2, §3, §4, §5, §6

[8] = target: EGFR (Homo sapiens (Human), UniProt P00533)
Method: as §1, §2, §3, §4, §5, §6

[9] = target: FES (Homo sapiens (Human), UniProt P07332)
Method: as §1, §2, §3, §4, §5, §6

[10] = target: FGFR1 (Homo sapiens (Human), UniProt P11362)
Method: as §1, §2, §3, §4, §5, §6

[11] = target: GSK3β (Homo sapiens (Human), UniProt P49841)
Method: as §1, §2, §3, §4, §5, §6

[12] = target: JAK2 (Homo sapiens (Human), UniProt O60674)
Method: as §1, §2, §3, §4, §5, §6

[13] = target: MSK1 (Homo sapiens (Human), UniProt O75582)
Method: as §1, §2, §3, §4, §5, §6

[14] = target: NEK2 (Homo sapiens (Human), UniProt P51955)
Method: as §1, §2, §3, §4, §5, §6

[15] = target: P70s6k (Homo sapiens (Human), UniProt P23443)
Method: as §1, §2, §3, §4, §5, §6

[16] = target: PAK2 (Homo sapiens (Human), UniProt Q13177)
Method: as §1, §2, §3, §4, §5, §6

[17] = target: PIM1 (Homo sapiens (Human), UniProt P11309)
Method: as §1, §2, §3, §4, §5, §6

[18] = target: PKD1 (Homo sapiens (Human), UniProt Q15139)
Method: as §1, §2, §3, §4, §5, §6

[19] = target: SYK (Homo sapiens (Human), UniProt P43405)
Method: as §1, §2, §3, §4, §5, §6

Sequence of GSK3β (P49841 whole entry, species assumed): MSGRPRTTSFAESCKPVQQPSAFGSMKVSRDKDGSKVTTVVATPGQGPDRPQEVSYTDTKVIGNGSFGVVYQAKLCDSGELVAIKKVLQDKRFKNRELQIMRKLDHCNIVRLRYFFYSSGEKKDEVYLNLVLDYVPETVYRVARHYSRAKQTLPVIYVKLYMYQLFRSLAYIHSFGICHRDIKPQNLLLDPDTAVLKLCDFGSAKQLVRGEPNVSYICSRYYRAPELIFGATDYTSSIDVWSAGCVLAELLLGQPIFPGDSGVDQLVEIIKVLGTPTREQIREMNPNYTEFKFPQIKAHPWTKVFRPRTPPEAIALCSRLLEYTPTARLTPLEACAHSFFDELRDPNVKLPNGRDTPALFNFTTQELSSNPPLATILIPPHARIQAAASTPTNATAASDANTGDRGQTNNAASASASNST
Sequence of JAK2 (O60674 whole entry, species assumed): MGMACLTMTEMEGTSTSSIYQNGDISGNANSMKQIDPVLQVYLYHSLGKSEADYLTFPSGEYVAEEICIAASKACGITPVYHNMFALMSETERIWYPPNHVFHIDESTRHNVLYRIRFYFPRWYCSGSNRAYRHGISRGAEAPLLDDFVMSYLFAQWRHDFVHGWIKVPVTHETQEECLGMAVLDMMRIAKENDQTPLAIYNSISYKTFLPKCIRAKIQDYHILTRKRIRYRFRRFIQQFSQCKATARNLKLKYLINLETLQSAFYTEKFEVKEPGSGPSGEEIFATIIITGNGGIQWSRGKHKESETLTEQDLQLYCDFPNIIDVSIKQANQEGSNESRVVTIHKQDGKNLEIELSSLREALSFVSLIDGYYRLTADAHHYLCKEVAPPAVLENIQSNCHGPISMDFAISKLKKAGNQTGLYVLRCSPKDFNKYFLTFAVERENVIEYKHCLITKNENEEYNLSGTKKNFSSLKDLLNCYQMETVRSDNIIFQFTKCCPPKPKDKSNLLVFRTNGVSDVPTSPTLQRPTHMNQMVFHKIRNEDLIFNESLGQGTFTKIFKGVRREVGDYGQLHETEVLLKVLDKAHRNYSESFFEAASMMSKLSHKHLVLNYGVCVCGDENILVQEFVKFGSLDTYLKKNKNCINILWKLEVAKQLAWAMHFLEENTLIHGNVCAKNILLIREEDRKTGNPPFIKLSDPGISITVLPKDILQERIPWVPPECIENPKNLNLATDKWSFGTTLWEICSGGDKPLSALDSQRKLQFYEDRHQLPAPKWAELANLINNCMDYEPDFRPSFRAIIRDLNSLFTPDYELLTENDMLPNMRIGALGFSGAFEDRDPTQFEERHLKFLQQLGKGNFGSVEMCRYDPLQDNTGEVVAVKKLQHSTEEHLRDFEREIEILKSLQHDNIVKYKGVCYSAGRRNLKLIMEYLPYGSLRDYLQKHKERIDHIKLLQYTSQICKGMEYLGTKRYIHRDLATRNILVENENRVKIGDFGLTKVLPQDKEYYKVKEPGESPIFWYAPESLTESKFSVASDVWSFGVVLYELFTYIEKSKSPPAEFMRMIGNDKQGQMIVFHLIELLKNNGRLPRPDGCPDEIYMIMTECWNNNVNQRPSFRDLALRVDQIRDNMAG
Sequence of CKIT (P10721 26-976): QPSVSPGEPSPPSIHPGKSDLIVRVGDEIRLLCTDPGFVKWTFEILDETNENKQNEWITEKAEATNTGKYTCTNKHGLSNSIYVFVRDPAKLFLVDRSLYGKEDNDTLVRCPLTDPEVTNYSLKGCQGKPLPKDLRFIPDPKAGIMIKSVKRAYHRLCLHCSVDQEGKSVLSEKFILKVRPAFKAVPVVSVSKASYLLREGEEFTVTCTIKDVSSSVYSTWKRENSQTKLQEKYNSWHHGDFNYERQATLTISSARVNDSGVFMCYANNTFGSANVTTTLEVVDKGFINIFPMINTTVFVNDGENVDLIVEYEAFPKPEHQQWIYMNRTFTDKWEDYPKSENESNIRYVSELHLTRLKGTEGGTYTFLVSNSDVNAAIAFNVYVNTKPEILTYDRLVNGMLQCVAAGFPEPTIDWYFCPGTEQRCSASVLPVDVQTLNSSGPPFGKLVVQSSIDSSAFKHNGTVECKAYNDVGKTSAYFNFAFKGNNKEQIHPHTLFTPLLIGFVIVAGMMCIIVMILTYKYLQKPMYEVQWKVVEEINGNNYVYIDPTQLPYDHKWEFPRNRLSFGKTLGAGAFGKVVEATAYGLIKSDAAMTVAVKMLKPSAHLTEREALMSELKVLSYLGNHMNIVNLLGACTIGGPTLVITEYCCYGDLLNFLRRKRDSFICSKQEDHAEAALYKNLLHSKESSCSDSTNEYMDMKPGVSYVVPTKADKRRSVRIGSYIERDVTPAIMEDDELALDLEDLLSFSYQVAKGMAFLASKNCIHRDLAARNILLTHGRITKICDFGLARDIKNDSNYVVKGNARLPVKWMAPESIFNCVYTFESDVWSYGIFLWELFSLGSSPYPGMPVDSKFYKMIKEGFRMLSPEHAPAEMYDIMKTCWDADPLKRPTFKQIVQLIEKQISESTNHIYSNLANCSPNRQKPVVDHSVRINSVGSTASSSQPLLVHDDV
Sequence of FGFR1 (P11362 22-822, species assumed): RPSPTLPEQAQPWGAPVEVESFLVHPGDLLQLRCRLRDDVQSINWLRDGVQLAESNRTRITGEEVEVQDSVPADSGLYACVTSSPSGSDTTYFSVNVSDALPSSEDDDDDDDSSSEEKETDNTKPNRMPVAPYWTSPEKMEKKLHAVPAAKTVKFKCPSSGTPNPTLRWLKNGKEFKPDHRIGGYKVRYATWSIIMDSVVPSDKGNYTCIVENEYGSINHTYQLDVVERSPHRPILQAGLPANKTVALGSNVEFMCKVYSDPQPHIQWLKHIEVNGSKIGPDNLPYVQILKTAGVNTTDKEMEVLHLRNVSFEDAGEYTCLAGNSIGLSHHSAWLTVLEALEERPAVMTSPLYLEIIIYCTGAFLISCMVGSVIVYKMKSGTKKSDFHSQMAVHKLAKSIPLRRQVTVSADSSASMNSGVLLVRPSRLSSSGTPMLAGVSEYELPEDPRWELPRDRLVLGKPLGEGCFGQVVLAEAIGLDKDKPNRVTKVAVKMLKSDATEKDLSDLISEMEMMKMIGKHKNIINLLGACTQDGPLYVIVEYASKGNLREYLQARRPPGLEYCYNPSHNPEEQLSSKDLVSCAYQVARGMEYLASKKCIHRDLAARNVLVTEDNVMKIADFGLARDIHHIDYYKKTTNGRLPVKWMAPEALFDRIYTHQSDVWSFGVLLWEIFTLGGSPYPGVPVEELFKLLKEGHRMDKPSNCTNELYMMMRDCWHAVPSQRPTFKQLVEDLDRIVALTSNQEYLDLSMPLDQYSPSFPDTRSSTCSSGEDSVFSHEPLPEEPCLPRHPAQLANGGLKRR
Sequence of NEK2 (P51955 whole entry, species assumed): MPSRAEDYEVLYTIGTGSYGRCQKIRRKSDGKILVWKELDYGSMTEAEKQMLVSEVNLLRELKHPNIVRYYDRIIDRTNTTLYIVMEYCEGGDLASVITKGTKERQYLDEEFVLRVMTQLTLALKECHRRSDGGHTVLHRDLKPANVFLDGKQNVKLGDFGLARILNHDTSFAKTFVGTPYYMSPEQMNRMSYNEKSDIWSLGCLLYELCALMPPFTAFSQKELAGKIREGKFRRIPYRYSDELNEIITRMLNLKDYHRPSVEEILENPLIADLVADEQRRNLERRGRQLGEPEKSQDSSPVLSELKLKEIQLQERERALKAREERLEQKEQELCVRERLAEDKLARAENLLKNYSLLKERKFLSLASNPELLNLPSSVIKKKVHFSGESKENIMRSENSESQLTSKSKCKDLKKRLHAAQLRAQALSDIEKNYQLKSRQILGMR
Sequence of PIM1 (P11309 whole entry, species assumed): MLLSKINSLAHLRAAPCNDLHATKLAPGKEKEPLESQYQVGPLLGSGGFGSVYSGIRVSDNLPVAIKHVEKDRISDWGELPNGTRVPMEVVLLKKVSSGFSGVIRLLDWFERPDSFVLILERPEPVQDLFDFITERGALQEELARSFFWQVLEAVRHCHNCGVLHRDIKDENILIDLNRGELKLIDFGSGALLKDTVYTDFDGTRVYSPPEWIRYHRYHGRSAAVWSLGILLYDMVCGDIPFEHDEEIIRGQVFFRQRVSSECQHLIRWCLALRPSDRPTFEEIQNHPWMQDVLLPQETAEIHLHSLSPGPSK
Sequence of P70s6k (P23443 whole entry): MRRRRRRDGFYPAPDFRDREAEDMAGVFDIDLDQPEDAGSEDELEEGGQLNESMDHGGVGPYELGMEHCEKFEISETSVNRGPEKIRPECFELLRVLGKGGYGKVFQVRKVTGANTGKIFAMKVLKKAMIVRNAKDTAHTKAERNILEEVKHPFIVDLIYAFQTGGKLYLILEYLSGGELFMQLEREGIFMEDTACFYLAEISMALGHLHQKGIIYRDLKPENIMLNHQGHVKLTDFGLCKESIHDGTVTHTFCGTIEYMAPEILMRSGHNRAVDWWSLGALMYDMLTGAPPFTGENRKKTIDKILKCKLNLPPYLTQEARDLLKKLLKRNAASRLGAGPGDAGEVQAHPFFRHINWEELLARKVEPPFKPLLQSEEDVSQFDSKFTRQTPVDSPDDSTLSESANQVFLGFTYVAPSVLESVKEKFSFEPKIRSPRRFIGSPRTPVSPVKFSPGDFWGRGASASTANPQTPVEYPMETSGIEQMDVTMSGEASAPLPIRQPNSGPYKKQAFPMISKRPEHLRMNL
Sequence of AURA (O14965 whole entry, species assumed): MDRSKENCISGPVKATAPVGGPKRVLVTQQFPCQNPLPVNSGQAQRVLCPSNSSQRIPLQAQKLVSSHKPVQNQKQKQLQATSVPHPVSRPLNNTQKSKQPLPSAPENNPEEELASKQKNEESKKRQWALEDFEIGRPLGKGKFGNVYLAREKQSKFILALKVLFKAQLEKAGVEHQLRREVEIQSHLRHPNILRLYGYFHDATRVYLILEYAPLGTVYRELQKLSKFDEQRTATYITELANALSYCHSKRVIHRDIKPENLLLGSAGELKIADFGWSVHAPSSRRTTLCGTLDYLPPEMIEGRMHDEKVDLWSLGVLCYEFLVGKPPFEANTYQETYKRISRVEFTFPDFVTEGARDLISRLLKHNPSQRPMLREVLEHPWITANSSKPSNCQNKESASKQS

In the case of `Nc1ccc(-c2ccc3ncc4c(=O)[nH]c(=O)n(-c5cccc(C(F)(F)F)c5)c4c3n2)cn1` [Compound 5, 9-(6-aminopyridin-3-yl)-1-(3-(trifluoromethyl)phenyl)pyrimido[5,4-c][1,5]naphthyridine-2,4(1H,3H)-dione], the IC50 [1] is reported as greater than 10000 nM, the IC50 [2] is reported as greater than 10000 nM and the IC50 [3] is reported as greater than 10000 nM. It also gave an IC50 [4] greater than 10000 nM, an IC50 [5] greater than 10000 nM and an IC50 [6] greater than 10000 nM. The IC50 [7] was greater than 10000 nM, the IC50 [8] was greater than 10000 nM and the IC50 [9] was greater than 10000 nM. It also gave an IC50 [10] greater than 10000 nM, an IC50 [11] greater than 10000 nM and an IC50 [12] greater than 10000 nM. It also gave an IC50 [13] greater than 10000 nM, an IC50 [14] greater than 10000 nM and an IC50 [15] greater than 10000 nM. For the same molecule, the IC50 [16] was greater than 10000 nM, the IC50 [17] was greater than 10000 nM and the IC50 [18] was 2410 nM. The IC50 [19] was greater than 10000 nM.
